In patent US20130158024A1, “TRICYCLIC NECROSTATIN COMPOUNDS” (priority 2005, published 2013):
Read-outs that look alike come from different tables or passages of the source.

What was measured:
[1] = system: FADD-deficient Jurkat T cells treated with TNF-α; test: Inhibition of necroptosis (CICD) in FADD-deficient Jurkat T cells treated with TNF-α, ATP-based viability; type: cell-based, human; settings: for antinecroptotic (anti-CICD) activity, in words: FADD-deficient Jurkat cells, TNFα
[2] = Homo sapiens, Jurkat, 24 h, read-out: EC50 (μM) for inhibition of necroptosis
[3] = 10 ng/mL human TNF-α, 24 hours, ATP-based viability, EC50 ± SD from at least two independent experiments, read-out: EC50 (μM) for inhibition of necroptosis

SMILES	EC50 [1, 2] [µM]	antinecroptotic (anti-CICD) activity, in words [1]	also measured
COc1ccc([C@H]2[C@H]3C[C@H](N)c4ccc(OC)cc4C3=NN2C(C)=O)cc1 (relative stereo) [Compound 145, (3R,3aR,5S)-rel-2-acetyl-5-amino-3,3a,4,5-tetrahydro-3-(4-methoxyphenyl)-8-methoxy-2H-benz[g]indazole]	1.2 ± 0.38		
COc1ccc([C@H]2[C@H]3C[C@H](N(C)C)c4ccc(OC)cc4C3=NN2C(C)=O)cc1 (relative stereo) [Compound 146, (3R,3aR,5S)-rel-2-acetyl-5-(N,N-dimethylamino)-3,3a,4,5-tetrahydro-3-(4-methoxyphenyl)-8-methoxy-2H-benz[g]indazole]	5.1 ± 2.2		
COc1ccc([C@H]2[C@H]3CCc4ccc(OC)cc4C3=NN2C=O)cc1 (relative stereo) [Compound 147, (3R,3aR)-rel-2-formyl-3,3a,4,5-tetrahydro-3-(4-methoxyphenyl)-8-methoxy-2H-benz[g]indazole]	0.92 ± 0.091		
COc1ccc([C@H]2[C@H]3CCc4ccc(OC)cc4C3=NN2C(=O)COC(C)=O)cc1 (relative stereo) [Compound 150, (3R,3aR)-rel-2-acetoxyacetyl-3,3a,4,5-tetrahydro-3-(4-methoxyphenyl)-8-methoxy-2H-benz[g]indazole]			EC50 [1, 3]: 3.1 ± 0.17 µM
COc1ccc([C@H]2[C@H]3CCc4ccc(OC)cc4C3=NN2C(N)=S)cc1 (relative stereo) [Compound 152, (3R,3aR)-rel-2-carbothioamide-3,3a,4,5-tetrahydro-3-(4-methoxyphenyl)-8-methoxy-2H-benz[g]indazole]			EC50 [1, 3]: 8.8 ± 3 µM
COc1ccc([C@H]2[C@H]3CCc4ccc(OC)cc4C3=NN2C(N)=O)cc1 (relative stereo) [Compound 153, (3R,3aR)-rel-2-carboxamide-3,3a,4,5-tetrahydro-3-(4-methoxyphenyl)-8-methoxy-2H-benz[g]indazole]			EC50 [1, 3]: 4.3 ± 2.9 µM
CNC(=S)N1N=C2c3cc(OC)ccc3CC[C@@H]2[C@@H]1c1ccc(OC)cc1 (relative stereo) [Compound 154, (3R,3aR)-rel-2-carbothioamide-3,3a,4,5-tetrahydro-3-(4-methoxyphenyl)-8-methoxy-N-methyl-2H-benz[g]indazole]			EC50 [1, 3]: 7.9 ± 2 µM
COc1ccc([C@H]2[C@H]3CCc4ccc(OC)cc4C3=NN2C(=N)N)cc1 (relative stereo) [Compound 157, (3R,3aR)-rel-2-carboxamidine-3,3a,4,5-tetrahydro-3-(4-methoxyphenyl)-8-methoxy-2H-benz[g]indazole]			EC50 [1, 3]: > 100 µM
COCC(=O)N1N=C2c3cc(OC)ccc3CC[C@@H]2[C@@H]1c1ccc(OC)cc1 (relative stereo) [Compound 158, (3R,3aR)-rel-2-methoxyacetyl-3,3a,4,5-tetrahydro-3-(4-methoxyphenyl)-8-methoxy-2H-benz[g]indazole]			EC50 [1, 3]: 0.44 ± 0.24 µM
COc1ccc2c(c1)CC[C@@H]1C2=NN(C(C)=O)[C@H]1c1ccc(F)cc1 (relative stereo) [Compound 162, (3R,3aS)-rel-2-acetyl-3,3a,4,5-tetrahydro-3-(4-fluorophenyl)-7-methoxy-2H-benz[g]indazole]	> 100		
COc1ccc2c(c1)CC[C@H]1C2=NN(C(C)=O)[C@H]1c1ccc(F)cc1 (relative stereo) [Compound 163, (3R,3aR)-rel-2-acetyl-3,3a,4,5-tetrahydro-3-(4-fluorophenyl)-7-methoxy-2H-benz[g]indazole]	> 100	loss of activity	
COc1ccc([C@H]2[C@@H]3CCc4ccc([N+](=O)[O-])cc4C3=NN2C(C)=O)cc1 (relative stereo) [Compound 168, (3R,3aS)-rel-2-acetyl-3,3a,4,5-tetrahydro-3-(4-methoxyphenyl)-8-nitro-2H-benz[g]indazole]	> 100		
COc1ccc([C@H]2[C@H]3CCc4ccc([N+](=O)[O-])cc4C3=NN2C(C)=O)cc1 (relative stereo) [Compound 169, (3R,3aR)-rel-2-acetyl-3,3a,4,5-tetrahydro-3-(4-methoxyphenyl)-8-nitro-2H-benz[g]indazole]	3.5 ± 1.5	diminished inhibitory activity	
COc1ccc([C@H]2[C@@H]3CCc4ccc(F)cc4C3=NN2C(C)=O)cc1 (relative stereo) [Compound 170, (3R,3aS)-rel-2-acetyl-3,3a,4,5-tetrahydro-3-(4-methoxyphenyl)-8-fluoro-2H-benz[g]indazole]	2.7 ± 0.82		
COc1ccc([C@H]2[C@H]3CCc4ccc(F)cc4C3=NN2C(C)=O)cc1 (relative stereo) [Compound 171, (3R,3aR)-rel-2-acetyl-3,3a,4,5-tetrahydro-3-(4-methoxyphenyl)-8-fluoro-2H-benz[g]indazole]	0.28 ± 0.032	tolerated	
COc1ccc2c(c1)C1=NN(C(C)=O)[C@@H](c3ccc(O[N+](=O)[O-])cc3)[C@H]1CC2 (relative stereo) [Compound 172, (3R,3aR)-rel-2-acetyl-3,3a,4,5-tetrahydro-3-(4-nitroxyphenyl)-8-methoxy-2H-benz[g]indazole]	1.8 ± 0.38		

SMILES	EC50 [1, 2] [µM]	antinecroptotic (anti-CICD) activity, in words [1]	also measured
COc1ccc([C@H]2[C@H]3CCc4c(OC)cccc4C3=NN2C(C)=O)cc1 (relative stereo) [Compound 173, (3R,3aR)-rel-2-acetyl-3,3a,4,5-tetrahydro-3-(4-methoxyphenyl)-6-methoxy-2H-benz[g]indazole]	> 100	loss of activity	
COc1ccc2c(c1)C1=NN(C(C)=O)[C@@H](c3ccc(OCc4ccccc4)cc3)[C@H]1CC2 (relative stereo) [Compound 174, (3R,3aR)-rel-2-acetyl-3,3a,4,5-tetrahydro-3-(4-benzyloxyphenyl)-8-methoxy-2H-benz[g]indazole]	> 100	detrimental to activity to varying degrees	
COc1ccc2c(c1)C1=NN(C(C)=O)[C@@H](c3ccc(O)cc3)[C@H]1CC2 (relative stereo) [Compound 175, (3R,3aR)-rel-2-acetyl-3,3a,4,5-tetrahydro-3-(4-hydroxyphenyl)-8-methoxy-2H-benz[g]indazole]	5.9 ± 1.4	detrimental to activity to varying degrees	
CC(=O)N1N=C2c3cc(O)ccc3CC[C@@H]2[C@@H]1c1ccc(O)cc1 (relative stereo) [Compound 176, (3R,3aR)-rel-2-acetyl-3,3a,4,5-tetrahydro-3-(4-hydroxyphenyl)-8-hydroxy-2H-benz[g]indazole]	> 100		
COc1ccc([C@H]2[C@H]3CCc4cccc(OC)c4C3=NN2C(C)=O)cc1 (relative stereo) [Compound 180, (3R,3aR)-rel-2-acetyl-3,3a,4,5-tetrahydro-3-(4-methoxyphenyl)-9-methoxy-2H-benz[g]indazole]	> 50	loss of activity	
COc1ccc([C@H]2[C@H]3CCc4ccc(OCc5ccccc5)cc4C3=NN2C(C)=O)cc1 (relative stereo) [Compound 181, (3R,3aR)-rel-2-acetyl-3,3a,4,5-tetrahydro-3-(4-methoxyphenyl)-8-benzyloxy-2H-benz[g]indazole]	5 ± 0.7	diminished activity	
COc1ccc2c(c1)C1=NN(C(C)=O)[C@@H](c3ccc(SC)cc3)[C@H]1CC2 (relative stereo) [Compound 182, (3R,3aR)-rel-2-acetyl-3,3a,4,5-tetrahydro-3-(4-thiomethoxyphenyl)-8-methoxy-2H-benz[g]indazole]		detrimental to activity to varying degrees	EC50 [1, 3]: 1.1 ± 0.69 µM
COc1ccc([C@H]2[C@H]3CCc4ccc(OCCN5CCOCC5)cc4C3=NN2C(C)=O)cc1 (relative stereo) [Compound 183, (3R,3aR)-rel-2-acetyl-3,3a,4,5-tetrahydro-3-(4-methoxyphenyl)-8-(4-morpholino)ethoxy-2H-benz[g]indazole]		diminished activity	EC50 [1, 3]: > 50 µM
COc1ccc([C@H]2[C@@H]3CCc4ccc(OC)cc4C3=NN2C=O)cc1 (relative stereo) [Compound 195, (3R,3aS)-rel-2-formyl-3,3a,4,5-tetrahydro-3-(4-methoxyphenyl)-8-methoxy-2H-benz[g] indazole]			melting point: 166 to 168 °C
COc1cc2c(cc1OC)C1=NN(C(C)=O)[C@@H](c3ccc(F)cc3)[C@@H]1CC2 (relative stereo) [Compound 198, (3R,3aS)-rel-2-acetyl-3,3a,4,5-tetrahydro-3-(4-fluorophenyl)-7,8-dimethoxy-2H-benz[g]indazole]			melting point: 231 to 233 °C
CC(=O)N1N=C2c3ccccc3CC[C@H]2[C@@H]1c1ccc(F)cc1 (relative stereo) [Compound 199, (3R,3aS)-rel-2-acetyl-3,3a,4,5-tetrahydro-3-(4-fluorophenyl)-2H-benz[g]indazole]			melting point: 168 to 171 °C
COc1ccc2c(c1)C1=NN(C(C)=O)[C@@H](c3cccc(F)c3)[C@@H]1CC2 (relative stereo) [Compound 200, (3R,3aS)-rel-2-acetyl-3,3a,4,5-tetrahydro-3-(3-fluorophenyl)-8-methoxy-2H-benz[g]indazole]			melting point: 196 to 199 °C
CCN1N=C2c3cc(OC)ccc3CC[C@@H]2[C@@H]1c1ccc(OC)cc1 (relative stereo) [Compound 213, (3R,3aR)-rel-2-ethyl-3,3a,4,5-tetrahydro-3-(4-methoxyphenyl)-8-methoxy-2H-benz[g]indazole]	> 100	complete loss of necroptosis inhibitory activity	
CN1C(=O)C(Cc2c[nH]c3c(Cl)cccc23)NC1=S (centres unmarked) [Compound 7-Cl-Nec-1]			EC50 ([1]; Jurkat FADD deficient cells treated with TNFα, read-out: EC50): 0.182 µM; increase in activity relative to Nec-1 ([1]; addition of a chlorine to the phenyl ring of Nec-1): approximately 2.7 fold
CN1C(=O)N[C@H](Cc2c[nH]c3c(Cl)cccc23)C1=O [R-7-Cl—O-Nec-1]			EC50 ([1]; Homo sapiens, Jurkat FADD deficient cells treated with TNFα, read-out: EC50): 0.047 µM; potency at inhibiting CICD relative to the (S)-enantiomer ([1]; enantiomers of 7-Cl—O-Nec-1): about 4 times
